According to article PMC9525273 (Nature Communications, 2022):
Where “and” joins values, the source holds several entries; their conditions need not be identical. Equal entries are not always repeated. Where two headings read alike, the source gives them in different places.

Legend:
Type in all cases: cell-based, Plasmodium falciparum
[1] = system: Dd2 parasites; experiment: P. falciparum proliferation assay (72 h, fluorescent DNA-intercalating dye)
Experimental: (§1) For experiments with all other parasites, the effects of compounds of interest on parasite proliferation was measured in 96-well plates containing serial dilutions of the compounds in culture medium, with a fluorescent DNA-intercalating dye used to detect surviving parasites. The assays were initiated with erythrocytes infected with predominantly ring-stage parasites, and the starting parasitaemia and haematocrit were both 1%.

[2] = system: Dd2-PfATP4^T418N,P990R parasites; experiment: as above
Experimental: as §1

[3] = system: Dd2-Polδ parasites; experiment: as above
Experimental: as §1

[4] = system: Dd2-Polδ-PfATP4^G358S parasites; experiment: as above
Experimental: as §1

[5] = system: HCR1 parasites (highly cipargamin-resistant clone 1); experiment: as above
Experimental: as §1

[6] = system: HCR2 parasites (highly cipargamin-resistant clone 2); experiment: as above
Experimental: as §1

[7] = system: NF54^WT parasites; experiment: microbe, parasite or virus in culture
Outline: (§2)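 Predominantly ring-stage cultures at 0.3% parasitaemia, 1% haematocrit, in medium with 10% O+ human serum; compound exposure 72 h, DMSO <0.5% (v/v). Live parasites counted by flow cytometry with SYBR Green I and 200 nM MitoTracker Deep Red. IC50/IC90 from linear interpolation of dose-response data.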

[8] = system: NF54^CTL parasites; experiment: P. falciparum proliferation assay (72 h, flow cytometry, SYBR Green I/MitoTracker)
Outline: as §2

C[C@H]1[C@@H](O)O[C@@H]2O[C@@]3(C)CC[C@H]4[C@H](C)CC[C@@H]1[C@@]24OO3 [Dihydroartemisinin]
IC50 ([1]; Plasmodium falciparum, DD2, read-out: Dihydroartemisinin IC50 values, Dd2, MEAN): 2.17 nM | IC50 ([1]; Plasmodium falciparum, DD2, read-out: Dihydroartemisinin IC50 values, Dd2, single experiments): 1.79 nM | IC50 ([1]; read-out: Dihydroartemisinin IC50 values, Dd2, single experiments): 1.66 nM and 2.87 nM and 2.36 nM | IC50 ([2]; Plasmodium falciparum, DD2, read-out: Dihydroartemisinin IC50 values, Dd2-PfATP4T418N,P990R, MEAN): 2.44 nM | IC50 ([2]; Plasmodium falciparum, DD2, read-out: Dihydroartemisinin IC50 values, Dd2-PfATP4T418N,P990R, single experiments): 2.1 nM | IC50 ([2]; read-out: Dihydroartemisinin IC50 values, Dd2-PfATP4T418N,P990R, single experiments): 2.01 nM and 2.76 nM and 2.9 nM | IC50 ([3]; Plasmodium falciparum, DD2, read-out: Dihydroartemisinin IC50 values, Dd2-Polδ, MEAN): 2.15 nM | IC50 ([3]; Plasmodium falciparum, DD2, read-out: Dihydroartemisinin IC50 values, Dd2-Polδ, single experiments): 2.08 nM | IC50 ([3]; read-out: Dihydroartemisinin IC50 values, Dd2-Polδ, single experiments): 2.37 nM and 1.58 nM and 2.55 nM | IC50 ([4]; Plasmodium falciparum, DD2, read-out: Dihydroartemisinin IC50 values, Dd2-Polδ-PfATP4G358S, MEAN): 2.58 nM | IC50 ([4]; Plasmodium falciparum, DD2, read-out: Dihydroartemisinin IC50 values, Dd2-Polδ-PfATP4G358S, single experiments): 2.3 nM | IC50 ([4]; read-out: Dihydroartemisinin IC50 values, Dd2-Polδ-PfATP4G358S, single experiments): 2.08 nM and 3.3 nM and 2.66 nM | IC50 ([5]; Plasmodium falciparum, read-out: Dihydroartemisinin IC50 values, HCR1, MEAN): 1.55 nM | IC50 ([5]; read-out: Dihydroartemisinin IC50 values, HCR1, single experiments): 1.37 nM and 2.01 nM and 1.76 nM | IC50 ([6]; Plasmodium falciparum, read-out: Dihydroartemisinin IC50 values, HCR2, MEAN): 1.51 nM | IC50 ([6]; Plasmodium falciparum, read-out: Dihydroartemisinin IC50 values, HCR2, single experiments): 1.46 nM | IC50 ([6]; read-out: Dihydroartemisinin IC50 values, HCR2, single experiments): 1.62 nM and 1.77 nM and 1.19 nM | IC90 ([7]; NF54WT parasites, individual experiments, read-out: IC90 values): 1.85 nM and 1.87 nM and 2.79 nM | FC (IC50) ([7]; NF54WT, reference line): 1.0 fold | FC (IC90) ([7]; NF54WT, reference line): 1.0 fold | IC90 ([7]; Plasmodium falciparum, NF54, NF54WT parasites, individual experiments, read-out: IC90 values): 2.83 nM | IC90 ([7]; Plasmodium falciparum, NF54, NF54WT parasites, mean of the experiments, read-out: IC90 values, MEAN): 2.3 nM | IC50 ([7]; Plasmodium falciparum, NF54, NF54WT, 10% human serum, read-out: IC50 ± SEM): 0.8 ± 0.1 nM | IC50 ([7]; Plasmodium falciparum, NF54, read-out: Dihydroartemisinin IC50 values, NF54WT, MEAN): 0.84 nM | IC50 ([7]; read-out: Dihydroartemisinin IC50 values, NF54WT, single experiments): 0.78 nM and 0.71 nM and 0.86 nM | FC (IC50) ([8]; NF54CTL compared to NF54WT): 1.1 fold | FC (IC90) ([8]; NF54CTL compared to NF54WT): 1.2 fold | IC90 ([8]; NF54CTL parasites, individual experiments, read-out: IC90 values): 3 nM and 2.45 nM and 2.56 nM | IC90 ([8]; Plasmodium falciparum, NF54, NF54CTL parasites, individual experiments, read-out: IC90 values): 2.88 nM | IC90 ([8]; Plasmodium falciparum, NF54, NF54CTL parasites, mean of the experiments, read-out: IC90 values, MEAN): 2.7 nM | IC50 ([8]; Plasmodium falciparum, NF54, NF54CTL, 10% human serum, read-out: IC50 ± SEM): 0.9 ± 0.1 nM | IC50 ([8]; Plasmodium falciparum, NF54, read-out: Dihydroartemisinin IC50 values, NF54CTL, MEAN): 0.89 nM | IC50 ([8]; read-out: Dihydroartemisinin IC50 values, NF54CTL, single experiments): 0.98 nM and 0.8 nM and 0.7 nM
